# Where two headings read alike, the source gives them in different places.
# How the values were obtained:
# Experiment in all cases: Ambit kinase profiling, competition binding
# RIPK4 = molecular target: T1, RIPK4 (Homo sapiens, UniProt P57078)
# T1 construct: purchased Ambit Biosciences (KINOMEscan)
# T1 sequence (P57078 1-832): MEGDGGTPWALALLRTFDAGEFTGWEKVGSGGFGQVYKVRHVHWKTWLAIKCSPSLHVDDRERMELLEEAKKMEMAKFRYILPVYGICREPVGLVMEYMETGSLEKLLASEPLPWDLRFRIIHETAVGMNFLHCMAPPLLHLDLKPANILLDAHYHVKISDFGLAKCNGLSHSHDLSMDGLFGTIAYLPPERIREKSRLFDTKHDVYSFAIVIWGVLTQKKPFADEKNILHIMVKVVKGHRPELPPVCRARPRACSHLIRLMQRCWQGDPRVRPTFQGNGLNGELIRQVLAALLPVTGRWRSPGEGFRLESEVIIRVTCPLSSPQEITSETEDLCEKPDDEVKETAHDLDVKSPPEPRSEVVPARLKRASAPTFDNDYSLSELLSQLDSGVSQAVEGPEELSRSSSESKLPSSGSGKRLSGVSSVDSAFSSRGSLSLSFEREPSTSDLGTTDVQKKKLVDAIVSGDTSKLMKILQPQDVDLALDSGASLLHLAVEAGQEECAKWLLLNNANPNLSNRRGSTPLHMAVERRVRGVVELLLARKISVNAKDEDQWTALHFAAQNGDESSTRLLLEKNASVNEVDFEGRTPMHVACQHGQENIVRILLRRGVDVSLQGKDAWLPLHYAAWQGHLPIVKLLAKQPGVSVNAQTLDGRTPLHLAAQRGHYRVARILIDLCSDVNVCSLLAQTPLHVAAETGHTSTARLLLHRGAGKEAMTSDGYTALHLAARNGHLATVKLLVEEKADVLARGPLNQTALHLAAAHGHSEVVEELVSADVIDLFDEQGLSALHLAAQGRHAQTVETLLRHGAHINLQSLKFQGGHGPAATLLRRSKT
# Procedure: (§1) Also included in the kinase profile are four isoforms of PKC (δ, ε, η, θ) and eight isoforms of CAMKs (CAMKIα, δ, γ; CAMKIIα, β, δ, γ; CAMK4).
# (§2) The global kinase profiling experiment was performed by Ambit Biosciences.
# DDR1 = molecular target: T2, DDR1 (Homo sapiens, UniProt Q08345)
# T2 construct: purchased Ambit Biosciences (KINOMEscan)
# Procedure: as §1, §2
# CAMKIIβ = molecular target: T3, CAMKIIβ (Homo sapiens, UniProt Q13554); details: for competition: CAMKIIβ, 10 µM
# T3 construct: purchased Ambit Biosciences (KINOMEscan)
# Procedure: as §1, §2
# PRKD1 = molecular target: T4, PRKD1 (Homo sapiens, UniProt Q15139)
# T4 construct: purchased Ambit Biosciences (KINOMEscan)
# T4 sequence (Q15139 1-912): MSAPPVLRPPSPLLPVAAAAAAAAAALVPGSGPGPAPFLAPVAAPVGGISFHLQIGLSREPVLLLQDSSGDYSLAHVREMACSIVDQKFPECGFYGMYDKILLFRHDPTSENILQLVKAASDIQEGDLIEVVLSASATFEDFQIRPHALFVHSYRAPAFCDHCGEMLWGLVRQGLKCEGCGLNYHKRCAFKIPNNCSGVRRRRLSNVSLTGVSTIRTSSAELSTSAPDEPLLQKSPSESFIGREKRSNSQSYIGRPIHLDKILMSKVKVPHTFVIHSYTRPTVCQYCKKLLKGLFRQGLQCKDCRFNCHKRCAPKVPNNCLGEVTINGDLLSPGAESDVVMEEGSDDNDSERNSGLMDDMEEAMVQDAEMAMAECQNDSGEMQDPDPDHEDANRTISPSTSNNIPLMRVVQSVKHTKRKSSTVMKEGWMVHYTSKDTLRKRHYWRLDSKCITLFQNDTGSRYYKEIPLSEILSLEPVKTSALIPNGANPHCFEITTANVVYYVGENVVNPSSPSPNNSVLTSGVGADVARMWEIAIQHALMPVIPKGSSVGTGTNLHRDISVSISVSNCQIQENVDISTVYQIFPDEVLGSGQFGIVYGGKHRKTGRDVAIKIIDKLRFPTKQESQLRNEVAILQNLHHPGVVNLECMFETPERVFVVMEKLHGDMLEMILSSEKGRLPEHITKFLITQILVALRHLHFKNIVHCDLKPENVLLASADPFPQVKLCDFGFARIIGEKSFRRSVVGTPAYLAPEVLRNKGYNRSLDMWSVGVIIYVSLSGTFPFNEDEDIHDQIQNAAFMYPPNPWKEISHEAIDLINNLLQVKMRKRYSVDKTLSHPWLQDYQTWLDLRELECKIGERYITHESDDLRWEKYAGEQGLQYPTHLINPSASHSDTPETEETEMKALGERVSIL
# Procedure: as §1, §2
# DAPK1 = molecular target: T5, DAPK1 (Homo sapiens, UniProt P53355)
# T5 construct: purchased Ambit Biosciences (KINOMEscan)
# Procedure: as §1, §2
# CAMK4 = molecular target: T6, CAMK4 (Homo sapiens, UniProt Q16566); details: for competition: 10 µM
# T6 construct: purchased Ambit Biosciences (KINOMEscan)
# T6 sequence (Q16566 1-473): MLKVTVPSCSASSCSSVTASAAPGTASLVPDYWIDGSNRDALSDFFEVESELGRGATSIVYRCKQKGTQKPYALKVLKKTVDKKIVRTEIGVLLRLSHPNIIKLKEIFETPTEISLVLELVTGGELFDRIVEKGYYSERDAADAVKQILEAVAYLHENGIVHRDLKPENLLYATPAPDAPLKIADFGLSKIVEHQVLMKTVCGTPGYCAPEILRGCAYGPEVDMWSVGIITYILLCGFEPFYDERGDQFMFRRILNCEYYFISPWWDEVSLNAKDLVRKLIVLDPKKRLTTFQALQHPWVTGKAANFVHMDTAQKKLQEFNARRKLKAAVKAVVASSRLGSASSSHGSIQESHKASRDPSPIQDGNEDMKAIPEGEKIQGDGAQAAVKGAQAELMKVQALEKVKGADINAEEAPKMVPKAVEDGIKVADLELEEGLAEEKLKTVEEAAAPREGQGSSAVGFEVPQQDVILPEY
# Procedure: as §1, §2
# ERK2 = molecular target: T7, ERK2 (Homo sapiens, UniProt P28482)
# T7 construct: purchased Ambit Biosciences (KINOMEscan)
# Procedure: as §1, §2
# PKC η = molecular target: T8, PKC η (Homo sapiens, UniProt P24723); details: for competition: PKC η, 10 µM
# T8 construct: purchased Ambit Biosciences (KINOMEscan)
# Procedure: as §1, §2
# CIT = molecular target: T9, CIT (Homo sapiens, UniProt O14578); details: for % Competition: 10 µM
# T9 construct: purchased Ambit Biosciences (KINOMEscan)
# Procedure: as §1, §2
# T5 sequence (P53355 whole entry): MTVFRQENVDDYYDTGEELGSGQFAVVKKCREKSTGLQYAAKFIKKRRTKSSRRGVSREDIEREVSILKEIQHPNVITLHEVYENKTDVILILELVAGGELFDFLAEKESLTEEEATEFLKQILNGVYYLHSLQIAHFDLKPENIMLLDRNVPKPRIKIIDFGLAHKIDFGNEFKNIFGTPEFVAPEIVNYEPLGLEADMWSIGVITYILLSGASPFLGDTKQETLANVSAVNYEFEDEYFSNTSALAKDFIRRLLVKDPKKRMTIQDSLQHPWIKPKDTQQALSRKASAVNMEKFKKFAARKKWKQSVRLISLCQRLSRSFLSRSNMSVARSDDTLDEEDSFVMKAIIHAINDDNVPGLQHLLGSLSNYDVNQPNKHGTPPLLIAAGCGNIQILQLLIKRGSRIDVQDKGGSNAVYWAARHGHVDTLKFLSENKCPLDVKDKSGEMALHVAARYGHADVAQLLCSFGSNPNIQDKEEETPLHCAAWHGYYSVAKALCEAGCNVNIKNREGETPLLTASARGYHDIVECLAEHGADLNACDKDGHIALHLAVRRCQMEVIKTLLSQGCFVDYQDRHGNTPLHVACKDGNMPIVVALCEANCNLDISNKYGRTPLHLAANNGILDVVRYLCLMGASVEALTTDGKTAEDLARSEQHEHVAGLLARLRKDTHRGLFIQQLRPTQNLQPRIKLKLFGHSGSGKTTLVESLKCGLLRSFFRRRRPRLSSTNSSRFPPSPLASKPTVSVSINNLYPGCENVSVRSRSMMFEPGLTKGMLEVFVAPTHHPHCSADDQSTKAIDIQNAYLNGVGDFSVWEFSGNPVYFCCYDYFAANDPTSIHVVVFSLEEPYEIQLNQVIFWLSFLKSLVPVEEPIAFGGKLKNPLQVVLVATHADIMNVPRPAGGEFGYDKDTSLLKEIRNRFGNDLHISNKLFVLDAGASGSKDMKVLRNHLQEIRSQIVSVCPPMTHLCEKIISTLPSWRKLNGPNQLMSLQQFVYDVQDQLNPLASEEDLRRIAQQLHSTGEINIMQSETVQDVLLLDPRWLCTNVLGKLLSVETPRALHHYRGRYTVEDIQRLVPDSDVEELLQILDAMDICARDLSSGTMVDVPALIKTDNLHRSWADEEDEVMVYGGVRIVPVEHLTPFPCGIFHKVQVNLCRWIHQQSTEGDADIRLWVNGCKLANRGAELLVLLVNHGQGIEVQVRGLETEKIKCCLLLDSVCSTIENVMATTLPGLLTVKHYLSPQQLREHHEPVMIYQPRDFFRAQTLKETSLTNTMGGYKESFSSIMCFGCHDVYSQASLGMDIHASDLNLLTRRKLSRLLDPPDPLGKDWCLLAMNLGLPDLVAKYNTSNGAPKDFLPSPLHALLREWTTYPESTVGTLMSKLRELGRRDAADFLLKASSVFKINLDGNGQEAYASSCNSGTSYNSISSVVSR
# T8 sequence (P24723 whole entry): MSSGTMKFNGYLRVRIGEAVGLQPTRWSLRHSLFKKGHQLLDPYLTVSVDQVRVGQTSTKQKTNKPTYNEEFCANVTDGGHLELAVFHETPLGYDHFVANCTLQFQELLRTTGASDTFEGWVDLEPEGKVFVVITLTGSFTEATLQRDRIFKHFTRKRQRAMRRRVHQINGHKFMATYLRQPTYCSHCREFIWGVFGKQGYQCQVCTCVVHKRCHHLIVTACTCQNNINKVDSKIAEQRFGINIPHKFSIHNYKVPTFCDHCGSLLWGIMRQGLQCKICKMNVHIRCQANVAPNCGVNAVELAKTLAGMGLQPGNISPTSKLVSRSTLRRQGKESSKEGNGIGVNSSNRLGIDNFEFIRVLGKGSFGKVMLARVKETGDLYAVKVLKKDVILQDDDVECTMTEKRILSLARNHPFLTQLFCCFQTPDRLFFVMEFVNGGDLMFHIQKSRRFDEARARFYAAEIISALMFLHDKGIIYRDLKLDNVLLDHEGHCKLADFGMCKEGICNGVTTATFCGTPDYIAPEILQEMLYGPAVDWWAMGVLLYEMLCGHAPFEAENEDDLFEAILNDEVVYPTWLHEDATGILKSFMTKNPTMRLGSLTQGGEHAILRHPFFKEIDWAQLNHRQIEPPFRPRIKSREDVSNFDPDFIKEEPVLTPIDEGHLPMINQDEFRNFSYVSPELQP
# T2 sequence (Q08345 19-913): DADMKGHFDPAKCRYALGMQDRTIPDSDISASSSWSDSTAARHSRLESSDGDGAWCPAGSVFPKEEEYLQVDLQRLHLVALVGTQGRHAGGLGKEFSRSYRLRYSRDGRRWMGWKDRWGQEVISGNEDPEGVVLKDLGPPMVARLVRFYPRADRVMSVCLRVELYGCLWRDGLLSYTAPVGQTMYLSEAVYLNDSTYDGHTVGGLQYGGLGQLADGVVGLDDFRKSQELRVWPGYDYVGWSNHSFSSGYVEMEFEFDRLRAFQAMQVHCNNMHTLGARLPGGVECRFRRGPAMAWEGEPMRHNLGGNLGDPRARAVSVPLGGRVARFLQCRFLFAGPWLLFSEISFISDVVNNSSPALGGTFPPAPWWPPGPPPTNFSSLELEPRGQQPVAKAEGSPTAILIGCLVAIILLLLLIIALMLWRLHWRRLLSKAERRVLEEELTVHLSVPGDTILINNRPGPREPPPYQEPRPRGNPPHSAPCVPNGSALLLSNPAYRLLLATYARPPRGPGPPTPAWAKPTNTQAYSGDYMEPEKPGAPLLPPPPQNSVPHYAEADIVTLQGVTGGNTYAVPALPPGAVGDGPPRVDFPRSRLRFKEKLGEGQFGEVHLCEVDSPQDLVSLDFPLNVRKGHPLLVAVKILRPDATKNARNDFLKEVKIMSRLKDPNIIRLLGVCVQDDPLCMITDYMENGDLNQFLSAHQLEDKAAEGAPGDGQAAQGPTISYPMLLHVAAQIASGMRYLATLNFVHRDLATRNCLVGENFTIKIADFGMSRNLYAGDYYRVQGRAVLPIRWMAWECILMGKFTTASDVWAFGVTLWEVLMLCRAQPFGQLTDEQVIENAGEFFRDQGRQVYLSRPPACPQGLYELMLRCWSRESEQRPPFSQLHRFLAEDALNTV
# T7 sequence (P28482 whole entry): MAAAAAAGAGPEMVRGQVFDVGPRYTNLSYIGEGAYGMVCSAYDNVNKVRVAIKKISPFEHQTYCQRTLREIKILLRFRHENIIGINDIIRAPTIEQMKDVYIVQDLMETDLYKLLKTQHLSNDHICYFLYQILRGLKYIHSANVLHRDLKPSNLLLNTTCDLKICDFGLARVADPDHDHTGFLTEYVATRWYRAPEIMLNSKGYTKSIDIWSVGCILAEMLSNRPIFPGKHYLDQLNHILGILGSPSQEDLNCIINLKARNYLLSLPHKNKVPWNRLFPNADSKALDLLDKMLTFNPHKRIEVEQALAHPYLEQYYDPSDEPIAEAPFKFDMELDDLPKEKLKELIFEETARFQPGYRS
# T3 sequence (Q13554 whole entry): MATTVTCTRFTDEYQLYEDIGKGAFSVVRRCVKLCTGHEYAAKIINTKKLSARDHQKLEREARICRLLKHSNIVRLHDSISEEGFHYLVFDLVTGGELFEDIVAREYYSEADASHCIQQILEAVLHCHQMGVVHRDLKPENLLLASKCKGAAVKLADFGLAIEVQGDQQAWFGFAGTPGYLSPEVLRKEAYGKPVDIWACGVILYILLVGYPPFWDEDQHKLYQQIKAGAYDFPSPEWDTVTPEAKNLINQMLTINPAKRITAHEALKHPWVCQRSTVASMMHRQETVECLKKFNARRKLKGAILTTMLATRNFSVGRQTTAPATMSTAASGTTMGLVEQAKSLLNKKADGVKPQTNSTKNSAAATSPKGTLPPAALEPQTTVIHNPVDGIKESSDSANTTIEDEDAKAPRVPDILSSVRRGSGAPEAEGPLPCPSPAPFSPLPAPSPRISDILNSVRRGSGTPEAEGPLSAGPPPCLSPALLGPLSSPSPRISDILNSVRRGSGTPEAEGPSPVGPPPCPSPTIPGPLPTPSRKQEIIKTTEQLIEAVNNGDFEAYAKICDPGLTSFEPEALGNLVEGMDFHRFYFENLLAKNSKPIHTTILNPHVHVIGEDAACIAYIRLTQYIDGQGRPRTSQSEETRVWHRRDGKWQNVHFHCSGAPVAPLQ
structure (smiles),measurement,setting,value
Fc1ccc(-c2c(-c3ccncc3)[nH]c3nccnc23)cc1 [Compound 122],inhibition at 10 µM,"RIPK4; RIPK4, 10 µM, read-out: % Competition",76%
same,inhibition at 10 µM,"DDR1; DDR1, 10 µM, read-out: % Competition",100%
same,competition,CAMKIIβ,< 50%
same,inhibition at 10 µM,"PRKD1; PRKD1 (PKD1), 10 µM, read-out: % Competition",92%
same,inhibition at 10 µM,"DAPK1; DAPK1, 10 µM, read-out: % Competition",< 50%
same,competition,CAMK4,< 50%
same,inhibition at 10 µM,"ERK2; ERK2, 10 µM, read-out: % Competition",87%
same,competition,PKC η,< 50%
same,% Competition,CIT,99%
CC(O)CNc1cc(-c2[nH]c3cccnc3c2-c2ccc(F)cc2)ccn1 (stereo not drawn) [Compound 140],inhibition at 10 µM,RIPK4; read-out: % Competition,< 50%
same,inhibition at 10 µM,DDR1; read-out: % Competition,98%
same,competition,CAMKIIβ,< 50%
same,inhibition at 10 µM,PRKD1; read-out: % Competition,83%
same,inhibition at 10 µM,DAPK1; read-out: % Competition,73%
same,competition,CAMK4,< 50%
same,inhibition at 10 µM,ERK2; read-out: % Competition,< 50%
same,competition,PKC η,< 50%
same,% Competition,CIT,99%
Fc1ccc(-c2c(-c3ccncc3)[nH]c3nccnc23)cc1 [RO1155697-000-005],inhibition at 10 µM,"RIPK4; RIPK4, compound concentration 10 uM, read-out: Percent Competition",76%
same,inhibition at 10 µM,"DDR1; DDR1, compound concentration 10 uM, read-out: Percent Competition",100%
same,inhibition at 10 µM,"CAMKIIβ; CAMK2B, compound concentration 10 uM, read-out: Percent Competition",< 50%
same,inhibition at 10 µM,"PRKD1; PRKD1, compound concentration 10 uM, read-out: Percent Competition",92%
same,inhibition at 10 µM,"DAPK1; DAPK1, compound concentration 10 uM, read-out: Percent Competition",< 50%
same,inhibition at 10 µM,"CAMK4; compound concentration 10 uM, read-out: Percent Competition",< 50%
same,inhibition at 10 µM,"ERK2; ERK2, compound concentration 10 uM, read-out: Percent Competition",87%
same,inhibition at 10 µM,"PKC η; PRKCH, compound concentration 10 uM, read-out: Percent Competition",< 50%
same,Percent Competition,CIT; compound concentration 10 uM,99%

# Source: PMC3445516 (PLoS ONE, 2012)
